Data as given in patent publication US20080221103A1, “New heterocyclic compounds” (ORCHID RESEARCH LABORATORIES LTD., priority 2007, published 2008).

Columns and labels:
PDE4 = PDE4 activity; format: biochemical; conditions: source human U937 cells
Method: PDE4 inhibition was measured by following a literature assay procedure (Cortizo J et al., J. Pharmacol., 1993, 108, 562-568). The assay method involves the following conditions.
Pre-Incubation Time/Temperature: 15 min at 25° C.
Incubation Time/Temperature. 20 min at 25° C.
Incubation buffer: 50 mM Tris-HCl, pH 7.5, 5 mM MgCl2 Quantitation method: Quantitation of [^3H]

5-LOX = target: T1, 5-LOX (Homo sapiens, UniProt P09917); assay: 5-LOX activity; format: biochemical; conditions: source human PBML cells, LTB4 EIA
T1 construct: Source: Human PBML cells Substrate: Arachidonic acid; endogenous in cells; host or cells: Human PBML cells (peripheral blood mononuclear leukocytes)
T1 sequence (P09917 1-674): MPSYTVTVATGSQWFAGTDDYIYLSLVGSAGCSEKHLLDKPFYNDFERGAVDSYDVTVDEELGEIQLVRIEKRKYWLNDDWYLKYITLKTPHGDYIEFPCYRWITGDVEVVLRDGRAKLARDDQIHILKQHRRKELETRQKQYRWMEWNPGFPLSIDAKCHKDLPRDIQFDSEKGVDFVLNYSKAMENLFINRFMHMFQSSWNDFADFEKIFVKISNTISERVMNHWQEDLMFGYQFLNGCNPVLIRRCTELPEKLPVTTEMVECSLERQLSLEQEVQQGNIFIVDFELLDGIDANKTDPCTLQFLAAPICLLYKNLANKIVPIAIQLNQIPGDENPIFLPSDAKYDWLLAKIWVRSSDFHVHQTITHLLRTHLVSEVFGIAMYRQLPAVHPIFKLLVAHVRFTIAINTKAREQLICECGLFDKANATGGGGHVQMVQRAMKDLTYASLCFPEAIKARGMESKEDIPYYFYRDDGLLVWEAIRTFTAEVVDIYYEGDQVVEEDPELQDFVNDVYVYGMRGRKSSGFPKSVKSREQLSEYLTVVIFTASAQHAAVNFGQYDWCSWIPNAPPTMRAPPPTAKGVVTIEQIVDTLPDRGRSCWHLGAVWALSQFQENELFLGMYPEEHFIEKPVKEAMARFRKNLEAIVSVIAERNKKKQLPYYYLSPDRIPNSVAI
Method: The assay method involves the following conditions. Source: Human PBML cells Substrate: Arachidonic acid
Pre-incubation Time/Temp.: 15 min at 37° C.
Incubation Time/Temp.: 15 min at 37° C.
Incubation buffer: HBSS (Hank's balanced salt solution) Quantitation method: EIA quantitation of LTB4 Significance criteria: >50% of maximum stimulation or inhibition The results are tabulated as shown in the table V.

DSS Induced colitis = assay: IBD-DSS model (DSS induced colitis test); format: in vivo; conditions: dosed Day 1 to 6, BALB/c mice, DSS 2%
Method: DSS Induced colitis test was performed as described by Axelsson et al., 1998. Male BALB/c mice were selected in the age of 7-8 weeks for the study. Colitis in mice was induced by providing DSS (2%) in the drinking water from day 1 to 6. Mice were dosed from Day 1 to 6 with test compound suspended in vehicle containing 0.25% carboxymethylcellulose and 0.5% Tween 80. The control animals received vehicle alone. Body weight and disease activity index was recorded daily during the experiment. After 6 days of treatment, animals were sacrificed; colon weight and colon length was recorded.

TNF-α [1] = assay: LPS induced sepsis for measurement of TNF-α inhibition in mice; format: in vivo; conditions: Mus musculus, 1.5 h; oral dosing; serum TNF-α 90 min after LPS i.p.
Method: The LPS induced sepsis model in mice was performed as described by Les sekut et al (J Lab Clin Med, 1994, 124, 813-820). Female Swiss albino mice were selected and the body weights were equivalent within each group. The mice were fasted for 20 h with free access to water. The mice were dosed orally with the test compound suspended in vehicle containing 0.5% Tween 80 in 0.25% Carboxy-methylcellulose sodium salt. The control mice were administered the vehicle alone. After 30 minutes of oral dosing, mice were injected with 500 μg of Lipopolysaccharide (Escherichia coli, LPS: B4 from Siga) in phosphate buffer saline solution into the intraperitoneal cavity of the mice. After 90 min of LPS administration mice were bled via retro-orbital sinus puncture. Blood samples were stored overnight at 4° C. Serum samples were collected by centrifuging the samples at 4000 rpm for 15 minutes at 4° C. Immediately the serum samples were analysed for TNF-α levels using commercially available mouse TNF-α ELISA kit (Amersham Biosciences) and assay was performed by the manufacturer instruction.

Thromboxane synthase = target: T2, Thromboxane synthase (Homo sapiens, UniProt P24557); assay: Thromboxane synthase activity; format: biochemical; conditions: source human platelets, TxB2 EIA
T2 construct: Source: Human Platelets; from tissue; host or cells: Human platelets
T2 sequence (P24557 1-533): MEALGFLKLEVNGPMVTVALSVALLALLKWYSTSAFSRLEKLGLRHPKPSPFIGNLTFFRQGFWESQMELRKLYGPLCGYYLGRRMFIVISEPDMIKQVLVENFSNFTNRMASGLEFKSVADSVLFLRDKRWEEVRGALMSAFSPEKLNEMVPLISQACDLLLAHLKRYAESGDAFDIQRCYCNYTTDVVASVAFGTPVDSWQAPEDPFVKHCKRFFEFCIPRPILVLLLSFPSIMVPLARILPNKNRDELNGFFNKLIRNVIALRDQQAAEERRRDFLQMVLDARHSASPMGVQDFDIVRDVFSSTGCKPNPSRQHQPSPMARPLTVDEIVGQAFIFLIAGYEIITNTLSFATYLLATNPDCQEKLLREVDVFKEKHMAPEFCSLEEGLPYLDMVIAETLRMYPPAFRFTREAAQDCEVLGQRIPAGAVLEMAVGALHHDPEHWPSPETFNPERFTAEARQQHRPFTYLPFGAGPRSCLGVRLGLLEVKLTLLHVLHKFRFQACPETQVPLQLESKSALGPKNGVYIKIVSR
Method: The assay method involves the following conditions.
Pre-incubation Time/Temp.: 15 min at 25° C.
Incubation Time/Temp.: 3 min at 25° C.
Incubation buffer: 10 mM Tris-HCl, pH 7.4 Quantitation method: EIA quantitation of TxB2 Significance criteria: >50% of maximum stimulation or inhibition The results are tabulated as shown in the table VI.

TNF-α [2] = assay: In vitro measurement of TNF-α production in LPS-stimulated human PBMC (ELISA); format: cell-based; conditions: LPS 1 μg/ml, 18 h; for inhibition at 1 µM: read-out: TNF-α Inhibition (%) at Conc. (1 μM); for inhibition at 10 µM: read-out: TNF-α Inhibition (%) at Conc. (10 μM)
Method: This assay determines the effect of test compounds on the production of TNF-α in human Peripheral Blood Mononuclear Cells (PBMC). Compounds were tested for their ability to inhibit the activity of TNF-α in human PBMC. PBMC were isolated from blood (of healthy volunteers) using BD Vacutainer CPT™ (Cell preparation tube, BD Bio Science) and suspended in RPMI medium (Physiol. Res. 52: 593-598, 2003). The test compounds were pre-incubated with PBMC (0.5 million/incubation well) for 15 min. at 37° C. and then stimulated with Lipopolysaccharide (Escherichia coli: B4; 1 μg/ml) for 18 h at 37° C. in 5% CO2. The levels of TNF-α in the cell culture medium were estimated using enzyme-linked immunosorbent assay performed in a 96 well format as per the procedure of the manufacturer (Cayman Chemical, Ann Arbor, USA).

U251 cells = assay: Anti-cancer screen (MTT), U251; format: cell-based; conditions: Homo sapiens, U-251, 48 h, concentrations tested 0.01-100 μM
Method: (§1) Experimental drugs are screened for anti-cancer activity in three cell lines for their GI50, TGI and LC50 values (using 5 concentrations for each compound). The cell lines are maintained in DMEM containing 10% fetal bovine serum. 96 well microtiter plates are inoculated with cells in 100 μL for 24 hours at 37° C., 5% CO2, 95% air and 100% relative humidity. 5000 HCT116 cells/well, 5000 NCIH460 cells/well, 10000 U251 cells/well and 5000 MDAMB231 cells/well are plated. A separate plate with these cell lines is also inoculated to determine cell viability before the addition of the compounds (T0).
(§2) Following 24-h incubation, experimental drugs are added to the 96 well plates. […]
(§3) Cells are incubated with compounds for 48 h followed by the addition of 10 μL 3-(4,5-Dimethyl-2-thiazolyl)-2,5-diphenyl-2H-tetrazolium (MTT) solution per well and a subsequent incubation at 37° C., 5% CO2, 95% air and 100% relative humidity, protected from light. […] Plates are agitated to ensure solution of the formazan crystals in DMSO and absorbance read at 570 nm.
(§4) Percent growth is calculated for each compound's concentration relative to the control and zero measurement wells (T0; viability right before compound addition). […]

NCIH460, HCT116, U251 = assay: Anti-cancer screen (MTT), mean over three cell lines; format: cell-based; conditions: mean of NCIH460, HCT116, U251
Method: as §1, §2, §3, §4

NCIH460 cells = assay: Anti-cancer screen (MTT), NCIH460; format: cell-based; conditions: Homo sapiens, NCI-H460, 48 h, concentrations tested 0.01-100 μM
Method: as §1, §2, §3, §4

HCT116 cells = assay: Anti-cancer screen (MTT), HCT116; format: cell-based; conditions: Homo sapiens, HCT-116, 48 h, concentrations tested 0.01-100 μM
Method: as §1, §2, §3, §4

SMILES	inhibition at 1 µM (TNF-α [2])	inhibition at 10 µM (TNF-α [2])	further results
CSc1nc(-c2ccccc2)nc(NN2C(=O)C=C(C)C2=O)c1C#N [Example 1, 4-(3-Methyl-2,5-dioxo-2,5-dihydro-1H-pyrrol-1-ylamino)-6-(methylthio)-2-phenylpyrimidine-5-carbonitrile]	57.3%	92.7%	PDE4 inhibition at 10 μM (%) (PDE4): 61%; inhibition at 10 µM (5-LOX): 94%; IBD-DSS Model % Inhibition of DAI at 50 mg/kg (DSS Induced colitis): 47%; ED50 (TNF-α [1]): 3.1 mg/kg; inhibition at 10 µM (Thromboxane synthase): 96%
COc1ccc(-c2nc(NN3C(=O)C=C(C)C3=O)c(C#N)c(SC)n2)cc1 [Example 2, 4-(Thiomethyl)-2-(4-methoxyphenyl)-6-(3-methyl-2,5-dioxo-2,5-dihydro-1H-pyrrol-1-ylamino)pyrimidine-5-carbonitrile]	50.9%	95.4%	–
COc1ccc(-c2nc(NN3C(=O)C=C(C)C3=O)c(C#N)c(SC)n2)cc1S(N)(=O)=O [Example 6, 5-(5-Cyano-4-(3-methyl-2,5-dioxo-2,5-dihydro-1H-pyrrol-1-ylamino)-6-(methylthio)pyrimidin-2-yl)-2-methoxybenzenesulfonamide]	–	88%	GI50 (U251 cells): 920 nM; GI50 (NCIH460, HCT116, U251): 5.3 µM; GI50 (NCIH460 cells): 10.1 µM; GI50 (HCT116 cells): 4.9 µM
CSc1nc(-c2cccc(S(N)(=O)=O)c2)nc(NN2C(=O)C=C(C)C2=O)c1C#N [Example 10, 3-(5-Cyano-4-(3-methyl-2,5-dioxo-2,5-dihydro-1H-pyrrol-1-ylamino)-6-(methylthio)pyrimidin-2-yl)benzenesulfonamide]	20%	9.7%	–
CSc1nc(-c2cccs2)nc(NN)c1C#N [Example 13, 4-Hydrazinyl-6-(methylthio)-2-(thiophen-2-yl)pyrimidine-5-carbonitrile]	13%	71%	–
COc1ccc(-c2nc(SC)c(C#N)c(N3CCN(c4ccccn4)CC3)n2)cc1 [Example 39, 2-(4-Methoxyphenyl)-4-(methylthio)-6-(4-(pyridin-2-yl)piperazin-1-yl)pyrimidine-5-carbonitrile]	19.2%	34%	–
